Source: PubChem BioAssay (NCI)
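These data come from cells grown in 96-well plates and exposed to compound for 48 hours at five concentrations. TGI denotes the concentration required for complete inhibition of growth.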

How the values were obtained:
Experiment in all cases: DTP human tumour cell line panel, 48 h
HCT-15 colon = tested on: HCT-15 colon
KM12 colon = tested on: KM12 colon
NCI-H226 lung = tested on: NCI-H226 lung
BT-549 breast = tested on: BT-549 breast
HT29 colon = tested on: HT29 colon
CAKI-1 renal = tested on: CAKI-1 renal
SF-295 CNS = tested on: SF-295 CNS
786-0 renal = tested on: 786-0 renal
M14 melanoma = tested on: M14 melanoma
SF-268 CNS = tested on: SF-268 CNS
SNB-75 CNS = tested on: SNB-75 CNS
MDA-N = tested on: MDA-N
LOX IMVI melanoma = tested on: LOX IMVI melanoma
DU-145 prostate = tested on: DU-145 prostate
K-562 leukemia = tested on: K-562 leukemia
SW-620 colon = tested on: SW-620 colon
SN12C renal = tested on: SN12C renal
IGROV1 ovarian = tested on: IGROV1 ovarian
HOP-92 NSCLC = tested on: HOP-92 NSCLC
MCF7 breast = tested on: MCF7 breast
HS 578T breast = tested on: HS 578T breast
U251 CNS = tested on: U251 CNS
RXF 393 renal = tested on: RXF 393 renal
SF-539 CNS = tested on: SF-539 CNS
EKVX NSCLC = tested on: EKVX NSCLC
SK-MEL-5 melanoma = tested on: SK-MEL-5 melanoma
SK-MEL-28 melanoma = tested on: SK-MEL-28 melanoma
SK-OV-3 ovarian = tested on: SK-OV-3 ovarian
T-47D breast = tested on: T-47D breast
PC-3 prostate = tested on: PC-3 prostate
UACC-62 melanoma = tested on: UACC-62 melanoma
HL-60(TB) leukemia = tested on: HL-60(TB) leukemia
OVCAR-3 ovarian = tested on: OVCAR-3 ovarian
HCT-116 colon = tested on: HCT-116 colon
UO-31 renal = tested on: UO-31 renal
SR leukemia = tested on: SR leukemia
SK-MEL-2 melanoma = tested on: SK-MEL-2 melanoma
HOP-62 NSCLC = tested on: HOP-62 NSCLC
SNB-19 CNS = tested on: SNB-19 CNS
RPMI-8226 leukemia = tested on: RPMI-8226 leukemia
OVCAR-8 ovarian = tested on: OVCAR-8 ovarian
MDA-MB-435 = tested on: MDA-MB-435
A549 NSCLC = tested on: A549 NSCLC
MOLT-4 leukemia = tested on: MOLT-4 leukemia
NCI-H522 lung = tested on: NCI-H522 lung
MDA-MB-231 breast = tested on: MDA-MB-231 breast
TK-10 renal = tested on: TK-10 renal
NCI-H23 lung = tested on: NCI-H23 lung
NCI/ADR-RES ovarian = tested on: NCI/ADR-RES ovarian
ACHN renal = tested on: ACHN renal
MALME-3M melanoma = tested on: MALME-3M melanoma
NCI-H460 lung = tested on: NCI-H460 lung
UACC-257 melanoma = tested on: UACC-257 melanoma
OVCAR-5 ovarian = tested on: OVCAR-5 ovarian
A498 renal = tested on: A498 renal
OVCAR-4 ovarian = tested on: OVCAR-4 ovarian
COLO 205 colon = tested on: COLO 205 colon
CCRF-CEM leukemia = tested on: CCRF-CEM leukemia
HCC-2998 colon = tested on: HCC-2998 colon

How did the TGI (HCT-15 colon) turn out when `c1ccc(C2=NNC3c4ccccc4-c4ccccc4N3C2)cc1` (stereo not given) was run?
The TGI was > 100 µM.

What about the TGI (KM12 colon) of the same compound?
Its TGI is > 100 µM.

And the TGI (NCI-H226 lung)?
Its TGI is 71.7 µM.

What about the TGI (BT-549 breast) of the same compound?
Its TGI is > 100 µM.

What about the TGI (HT29 colon) of the same compound?
The TGI was > 100 µM.

And the TGI (CAKI-1 renal)?
Its TGI is > 100 µM.

What about the TGI (SF-295 CNS) of the same compound?
The TGI was > 100 µM.

What about the TGI (786-0 renal) of the same compound?
Its TGI is > 100 µM.

What about the TGI (M14 melanoma) of the same compound?
The TGI was > 100 µM.

And the TGI (SF-268 CNS)?
Its TGI is > 100 µM.

And the TGI (SNB-75 CNS)?
Its TGI is 66.1 µM.

What about the TGI (MDA-N) of the same compound?
Its TGI is > 100 µM.

What about the TGI (LOX IMVI melanoma) of the same compound?
The TGI was > 100 µM.

And the TGI (DU-145 prostate)?
Its TGI is > 100 µM.

What about the TGI (K-562 leukemia) of the same compound?
The TGI was 82 µM.

And the TGI (SW-620 colon)?
Its TGI is > 100 µM.

And the TGI (SN12C renal)?
Its TGI is > 100 µM.

What about the TGI (IGROV1 ovarian) of the same compound?
Its TGI is > 100 µM.

What about the TGI (HOP-92 NSCLC) of the same compound?
Its TGI is > 100 µM.

What about the TGI (MCF7 breast) of the same compound?
Its TGI is > 100 µM.

What about the TGI (HS 578T breast) of the same compound?
The TGI was > 100 µM.

And the TGI (U251 CNS)?
The TGI was > 100 µM.

And the TGI (RXF 393 renal)?
The TGI was > 100 µM.

What about the TGI (SF-539 CNS) of the same compound?
The TGI was 50.5 µM.

What about the TGI (EKVX NSCLC) of the same compound?
Its TGI is > 100 µM.

What about the TGI (SK-MEL-5 melanoma) of the same compound?
The TGI was 29.4 µM.

And the TGI (SK-MEL-28 melanoma)?
The TGI was > 100 µM.

And the TGI (SK-OV-3 ovarian)?
Its TGI is > 100 µM.

What about the TGI (T-47D breast) of the same compound?
The TGI was 92.4 µM.

What about the TGI (PC-3 prostate) of the same compound?
Its TGI is 65.5 µM.

And the TGI (UACC-62 melanoma)?
The TGI was 35.2 µM.

And the TGI (HL-60(TB) leukemia)?
Its TGI is 6.91 µM.

What about the TGI (OVCAR-3 ovarian) of the same compound?
The TGI was > 100 µM.

And the TGI (HCT-116 colon)?
Its TGI is > 100 µM.

What about the TGI (UO-31 renal) of the same compound?
Its TGI is > 100 µM.

What about the TGI (SR leukemia) of the same compound?
Its TGI is 56.8 µM.

What about the TGI (SK-MEL-2 melanoma) of the same compound?
The TGI was 45.8 µM.

And the TGI (HOP-62 NSCLC)?
Its TGI is > 100 µM.

And the TGI (SNB-19 CNS)?
Its TGI is > 100 µM.

What about the TGI (RPMI-8226 leukemia) of the same compound?
The TGI was 57.8 µM.

What about the TGI (OVCAR-8 ovarian) of the same compound?
The TGI was > 100 µM.

What about the TGI (MDA-MB-435) of the same compound?
The TGI was 68.1 µM.

And the TGI (A549 NSCLC)?
Its TGI is > 100 µM.

What about the TGI (MOLT-4 leukemia) of the same compound?
Its TGI is 56.9 µM.

And the TGI (NCI-H522 lung)?
Its TGI is 80.3 µM.

And the TGI (MDA-MB-231 breast)?
The TGI was > 100 µM.

What about the TGI (TK-10 renal) of the same compound?
Its TGI is 91.7 µM.

What about the TGI (NCI-H23 lung) of the same compound?
Its TGI is 67.8 µM.

And the TGI (NCI/ADR-RES ovarian)?
The TGI was > 100 µM.

And the TGI (ACHN renal)?
The TGI was > 100 µM.

What about the TGI (MALME-3M melanoma) of the same compound?
Its TGI is 83.1 µM.

What about the TGI (NCI-H460 lung) of the same compound?
Its TGI is 53.3 µM.

And the TGI (UACC-257 melanoma)?
The TGI was 61.6 µM.

And the TGI (OVCAR-5 ovarian)?
Its TGI is > 100 µM.

And the TGI (A498 renal)?
Its TGI is 98.5 µM.

What about the TGI (OVCAR-4 ovarian) of the same compound?
The TGI was > 100 µM.

What about the TGI (COLO 205 colon) of the same compound?
The TGI was 37.3 µM.

What does the source list for `CCN(CCCl)c1cc(CN(C)C)cc(NC(=O)c2ccc(C(=O)Nc3cc(CN(C)C)cc(N(CC)CCCl)c3)cc2)c1`?
TGI (HCT-15 colon): 29.5 µM; TGI (KM12 colon): 1.36 µM; TGI (NCI-H226 lung): 0.251 µM; TGI (BT-549 breast): 0.683 µM; TGI (HT29 colon): 3.55 µM; TGI (CAKI-1 renal): 1.74 µM; TGI (SF-295 CNS): 1.21 µM; TGI (786-0 renal): 1.3 µM; TGI (M14 melanoma): 0.926 µM; TGI (SF-268 CNS): 0.749 µM; TGI (SNB-75 CNS): 0.506 µM; TGI (MDA-N): 0.594 µM; TGI (CCRF-CEM leukemia): 1.01 µM; TGI (LOX IMVI melanoma): 0.712 µM; TGI (DU-145 prostate): 13.7 µM; TGI (K-562 leukemia): 1.6 µM; TGI (SW-620 colon): 1.92 µM; TGI (SN12C renal): 1.53 µM; TGI (IGROV1 ovarian): 0.732 µM; TGI (HOP-92 NSCLC): 0.662 µM; TGI (MCF7 breast): 0.241 µM; TGI (HS 578T breast): 0.761 µM; TGI (U251 CNS): 1.64 µM; TGI (RXF 393 renal): 0.109 µM; TGI (SF-539 CNS): 0.815 µM; TGI (EKVX NSCLC): 5.58 µM; TGI (SK-MEL-5 melanoma): 0.328 µM; TGI (SK-MEL-28 melanoma): 0.536 µM; TGI (SK-OV-3 ovarian): 5.82 µM; TGI (T-47D breast): 15.4 µM; TGI (PC-3 prostate): 2.4 µM; TGI (UACC-62 melanoma): 0.273 µM; TGI (HL-60(TB) leukemia): 1.09 µM; TGI (OVCAR-3 ovarian): 2.66 µM; TGI (HCT-116 colon): 1.06 µM; TGI (UO-31 renal): 11.6 µM; TGI (SR leukemia): 18.1 µM; TGI (SK-MEL-2 melanoma): 3.23 µM; TGI (HOP-62 NSCLC): 0.966 µM; TGI (SNB-19 CNS): 0.936 µM; TGI (RPMI-8226 leukemia): 1.02 µM; TGI (OVCAR-8 ovarian): 1.63 µM; TGI (MDA-MB-435): 0.48 µM; TGI (A549 NSCLC): 3.89 µM; TGI (MOLT-4 leukemia): 0.248 µM; TGI (NCI-H522 lung): 0.234 µM; TGI (MDA-MB-231 breast): 1.36 µM; TGI (HCC-2998 colon): 0.311 µM; TGI (TK-10 renal): 2.57 µM; TGI (NCI-H23 lung): 0.472 µM; TGI (NCI/ADR-RES ovarian): > 100 µM; TGI (ACHN renal): 0.994 µM; TGI (MALME-3M melanoma): 0.88 µM; TGI (NCI-H460 lung): 1.54 µM; TGI (UACC-257 melanoma): 1.32 µM; TGI (OVCAR-5 ovarian): 0.966 µM; TGI (OVCAR-4 ovarian): 9.46 µM; TGI (COLO 205 colon): 0.551 µM
